Consider 15 compounds from PubChem BioAssay (NCI).

Test systems include HCT-116 colon; SF-539 CNS; NCI-H226 lung; MDA-MB-435; COLO 205 colon; OVCAR-4 ovarian; PC-3 prostate; SN12C renal; MOLT-4 leukemia; A498 renal.
Holding throughout (assay): NCI anticancer screen, dose series, 48 h

“And” between values parts separate entries of the source, which are not always exact repeats. Identical values can stand only once.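 Five compound concentrations were applied to cells in 96-well plates for 48 hours; endpoints were derived by simple linear interpolation of the resulting dose-response curve. GI50 is the concentration that inhibits growth by half. Definition used: TGI = concentration required for complete inhibition of growth.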 Where a SMILES comes first, the peptide text is derived from it. [ ]: non-standard residue; d: D form. Some results are limits rather than exact numbers.

With `N#Cc1sc2c(c1OC(=O)c1ccco1)c(=O)n(-c1ccccc1)c(=S)n2-c1ccccc1`, the TGI in the assay with HCT-116 colon was 41.6 µM; in the assay with SF-539 CNS, 52.7 µM; with NCI-H226 lung it was greater than 100 µM; in the assay on MDA-MB-435, 84.4 µM; with COLO 205 colon it was 61.5 µM; with OVCAR-4 ovarian, 81.2 µM. Besides, the TGI in the assay with PC-3 prostate was greater than 100 µM; with SN12C renal, greater than 100 µM; in the assay with MOLT-4 leukemia, 43.4 µM.
With `O=C1Sc2ccccc2C(=O)N2CCSC12` (stereo not given), the TGI in the assay with A498 renal, in the assay with HCT-116 colon, with COLO 205 colon, in the assay with SN12C renal and in the assay with MOLT-4 leukemia was greater than 100 µM each time.
As for `O=[N+]([O-])c1c(O)c2nonc2c2nn(-c3ccccc3)nc12`, the TGI with HCT-116 colon is greater than 100 µM; in the assay on SF-539 CNS it was greater than 100 µM; in the assay on NCI-H226 lung, 79.1 µM; with MDA-MB-435, greater than 100 µM; in the assay with COLO 205 colon, greater than 100 µM; in the assay on OVCAR-4 ovarian it was greater than 100 µM. Besides, the TGI in the assay with PC-3 prostate, in the assay on SN12C renal and in the assay with MOLT-4 leukemia was greater than 100 µM throughout.
As for `Cc1cc(C)[n+]2c(c1)C=CC2`, the TGI is 79.4 µM in the assay on SF-539 CNS; 60.8 µM in the assay with NCI-H226 lung; 68.2 µM in the assay with COLO 205 colon; greater than 100 µM in the assay with OVCAR-4 ovarian; greater than 100 µM in the assay on SN12C renal.
In the case of `O=c1c2cccnc2oc2c(Cl)cc(-c3nn[nH]n3)cc12`, the TGI with A498 renal, in the assay with HCT-116 colon, in the assay with SF-539 CNS, with NCI-H226 lung, in the assay with MDA-MB-435 and with COLO 205 colon was greater than 100 µM each time. The TGI with OVCAR-4 ovarian, with PC-3 prostate and in the assay with SN12C renal was greater than 100 µM each time.
For `COC(=O)/C1=C/C=C\C[C@@]2(C)CC(c3ccoc3)OC(=O)[C@@H]2CC[C@H]1C` (stereo not given in full), the TGI in the assay with A498 renal, in the assay on HCT-116 colon, in the assay on SF-539 CNS, in the assay on NCI-H226 lung, in the assay on COLO 205 colon and in the assay with OVCAR-4 ovarian was greater than 25 µM throughout. Also, the TGI in the assay on PC-3 prostate, with SN12C renal and in the assay on MOLT-4 leukemia was greater than 25 µM throughout.
On to `Cc1nc(N)c(N2CCN(S(=O)(=O)N(Cc3ccccc3)Cc3ccccc3)CC2)c(=O)[nH]1`, for which the TGI in the assay with HCT-116 colon is greater than 100 µM; in the assay on SF-539 CNS, 80.6 µM; in the assay on NCI-H226 lung it was greater than 100 µM; with MDA-MB-435 it was 88.8 µM; with COLO 205 colon it was 65.9 µM; in the assay on OVCAR-4 ovarian, 93.6 µM. Besides, the results for the TGI with PC-3 prostate, in the assay on SN12C renal and in the assay on MOLT-4 leukemia were 46.5 µM, 80.7 µM and greater than 100 µM, respectively.
Turning to `N#Cc1ccc(-c2ccc(Cl)cc2)n(C2OC(CO)C(O)C(O)C2O)c1=S` (stereo not given), the GI50 in the assay with A498 renal is > 100 µM and 18.9 µM. The TGI with A498 renal is > 100 µM and 57.5 µM; with HCT-116 colon, greater than 100 µM; with SF-539 CNS it was greater than 100 µM; in the assay on NCI-H226 lung, greater than 100 µM; in the assay with OVCAR-4 ovarian, greater than 100 µM; with PC-3 prostate, greater than 100 µM. Also, the TGI in the assay on SN12C renal and with MOLT-4 leukemia was greater than 100 µM in each case.
For `Cc1cnc2c(c1)C(=O)N(c1ccc(Oc3ccccc3)cc1)S2(=O)=O`, the TGI in the assay on HCT-116 colon, with SF-539 CNS, in the assay on NCI-H226 lung, in the assay on MDA-MB-435, with COLO 205 colon and in the assay with OVCAR-4 ovarian was greater than 100 µM each time. In addition, the TGI in the assay with PC-3 prostate, with SN12C renal and in the assay on MOLT-4 leukemia was greater than 100 µM each time.
In the case of `O=C(CCCCCNC(=O)c1ccc(Cl)cc1)NO`, the TGI in the assay on HCT-116 colon was 10.7 µM; with SF-539 CNS, greater than 100 µM; in the assay with NCI-H226 lung, 71.2 µM; with MDA-MB-435, 31.3 µM; with COLO 205 colon, 10.5 µM; in the assay with OVCAR-4 ovarian it was greater than 100 µM. For the same compound, the TGI in the assay with PC-3 prostate was 9 µM; in the assay on SN12C renal, 24.4 µM; in the assay with MOLT-4 leukemia, greater than 100 µM.
For `O=C1C(Cl)N(c2ccc([N+](=O)[O-])cc2)C1c1c[nH]c2ccccc12` (stereo not given), the TGI in the assay with HCT-116 colon, with SF-539 CNS, with COLO 205 colon, in the assay on OVCAR-4 ovarian, in the assay on SN12C renal and in the assay on MOLT-4 leukemia was greater than 100 µM throughout.
Consider `COc1cc2nc(-c3cccs3)nc(N3CCN(c4ccccc4)CC3)c2cc1OC`, for which the TGI in the assay with A498 renal, in the assay on HCT-116 colon, in the assay with SF-539 CNS, in the assay with NCI-H226 lung, in the assay on MDA-MB-435 and in the assay with COLO 205 colon was greater than 100 µM in each case. The TGI in the assay on OVCAR-4 ovarian, in the assay on PC-3 prostate and in the assay on SN12C renal was greater than 100 µM throughout.
Regarding `COc1cc2c3c(n(C)c(=O)c2cc1OC)-c1cc2c(cc1/C3=C\CCCCl)OCO2`, the TGI in the assay on A498 renal is 80.7 µM; in the assay with HCT-116 colon it was greater than 100 µM; with MDA-MB-435 it was greater than 100 µM; in the assay with COLO 205 colon, greater than 100 µM; in the assay with OVCAR-4 ovarian, greater than 100 µM; with PC-3 prostate, greater than 100 µM. Moreover, the TGI in the assay on SN12C renal is greater than 100 µM; in the assay on MOLT-4 leukemia, 43.2 µM. For the same compound, the GI50 with HCT-116 colon was 40.4 µM; with MDA-MB-435, greater than 100 µM; in the assay with SN12C renal, greater than 100 µM.
For the compound `CC(C)C[C@H](NC(=O)[C@H](CC(C)C)NC(=O)[C@@H](Cc1c[nH]c2ccccc12)NC(=O)[C@H](Cc1ccccc1)NC(=O)[C@@H](Cc1c[nH]c2ccccc12)NC(=O)[C@H](CCC(N)=O)NC(=O)[C@@H](CCC(N)=O)NC(=O)[C@@H]1CCCN1C(=O)[C@@H](CCCCN)NC(=O)[C@H]1CCCN1C(=O)[C@H](N)CCCN=C(N)N)C(N)=O` (H-[dR][dP][dK]P[dQ]Q[dW]F[dW]LL-NH2), the TGI in the assay with A498 renal is 88.1 µM; in the assay with HCT-116 colon it was greater than 100 µM; in the assay on SF-539 CNS it was greater than 100 µM; in the assay on NCI-H226 lung, greater than 100 µM; in the assay on COLO 205 colon, greater than 100 µM; in the assay on OVCAR-4 ovarian it was greater than 100 µM. The TGI in the assay on SN12C renal is greater than 100 µM; in the assay on MOLT-4 leukemia, greater than 79.5 µM.
For the compound `O=c1c(O)c(-c2ccccc2)oc2c(CP(=O)(O)O)cccc12`, the TGI in the assay on A498 renal, in the assay on HCT-116 colon, in the assay on SF-539 CNS, with MDA-MB-435, in the assay on COLO 205 colon and in the assay with OVCAR-4 ovarian was greater than 100 µM each time. For the same compound, the TGI in the assay on PC-3 prostate, with SN12C renal and with MOLT-4 leukemia was greater than 100 µM throughout.
